Measured values reported in ChEMBL document CHEMBL5325395, “Design, synthesis and anti-ovarian cancer activities of thieno[2,3-d]pyrimidine based chimeric BRD4 inhibitor/nitric oxide-donator” (Eur J Med Chem, 2023).
Activity calls are given as the source filed them. The rule behind the calls is not given here.

Experiments:
[1] = target: Bromodomain-containing protein 4 (Homo sapiens, UniProt O60885); assay: Inhibition of BRD4 (unknown origin)
SK-OV-3 [2] = assay: Antiproliferative activity against human SK-OV-3 cells assessed as reduction in cell viability incubated for 24 hrs by CCK8 assay; format: functional, cell-based; conditions: SK-OV-3, 24 h
OVCAR-3 = assay: Antiproliferative activity against human OVCAR-3 cells assessed as reduction in cell viability incubated for 24 hrs by CCK8 assay; format: functional, cell-based; conditions: OVCAR-3, 24 h
SW626 = assay: Antiproliferative activity against human SW626 cells assessed as reduction in cell viability incubated for 24 hrs by CCK8 assay; format: functional, cell-based; conditions: SW626, 24 h
ES-2 = assay: Antiproliferative activity against human ES2 cells assessed as reduction in cell viability incubated for 24 hrs by CCK8 assay; format: functional, cell-based; conditions: ES-2, 24 h
A2780 = assay: Antiproliferative activity against human A2780 cells assessed as reduction in cell viability incubated for 24 hrs by CCK8 assay; format: functional, cell-based; conditions: A2780, 24 h
[3] = Induction of NO release in phosphate buffer at 0.5 hrs by Griess reagent based spectrophotometer analysis; format: functional
[4] = Induction of NO release in phosphate buffer at 1 hr by Griess reagent based spectrophotometer analysis; format: functional
[5] = Induction of NO release in phosphate buffer at 2 hrs by Griess reagent based spectrophotometer analysis; format: functional
[6] = Induction of NO release in phosphate buffer at 3 hrs by Griess reagent based spectrophotometer analysis; format: functional
[7] = Induction of NO release in phosphate buffer at 4 hrs by Griess reagent based spectrophotometer analysis; format: functional
[8] = Induction of NO release in phosphate buffer at 6 hrs by Griess reagent based spectrophotometer analysis; format: functional
[9] = Induction of NO release in phosphate buffer at 24 hrs by Griess reagent based spectrophotometer analysis; format: functional
SK-OV-3 [10] = assay: Induction of autophagy in human SK-OV-3 cells assessed as reduction in cell viability at 100 nmol/L incubated for 24 hrs by CCK8 assay; format: functional, cell-based
SK-OV-3 [11] = assay: Induction of autophagy in human SK-OV-3 cells assessed as reduction in cell viability at 1 mmol/L incubated for 24 hrs by CCK8 assay; format: functional, cell-based
Mus musculus = assay: In vivo inhibition of BRD4 in BALB/c nude mouse xenografted with human SK-OV-3 cells assessed as reduction in c-Myc expression at 30 mg/kg, ip administered for 19 days by immunohistochemical analysis; format: functional, organism-based; conditions: time 19.0 day

Cc1cc(-c2nc3sc4c(c3c(=O)[nH]2)CCN(C)C4)cc(C)c1OCCCC(=O)OCc1no[n+]([O-])c1C
IC50 [1]: 2.26 µM | IC50 (SK-OV-3 [2]): 7.93 µM | IC50 (OVCAR-3): 5.44 µM | IC50 (SW626): 13.4 µM | IC50 (ES-2): 14.4 µM | IC50 (A2780): 17.3 µM | Activity [3]: 0.023 µmol/L | Activity [4]: 0.029 µmol/L | Activity [5]: 0.03 µmol/L | Activity [6]: 0.027 µmol/L | Activity [7]: 0.035 µmol/L | Activity [8]: 0.036 µmol/L | Activity [9]: 0.149 µmol/L

COc1cc(OC)c2c(=O)[nH]c(-c3cc(C)c(OCCO)c(C)c3)nc2c1 [APABETALONE]
IC50 (SK-OV-3 [2]): 7.05 µM | IC50 (OVCAR-3): 16.9 µM | IC50 (SW626): 8.45 µM | IC50 (ES-2): 8.01 µM | IC50 (A2780): 123 µM

Cc1cc(-c2nc3sc4c(c3c(=O)[nH]2)CCN(C)C4)cc(C)c1OCCCCCC(=O)OCc1c(-c2ccccc2)no[n+]1[O-]
IC50 [1]: 1.34 µM | IC50 (SK-OV-3 [2]): 1.69 µM | IC50 (OVCAR-3): 5.42 µM | IC50 (SW626): 12.5 µM | IC50 (ES-2): 12.8 µM | IC50 (A2780): 9.73 µM | Activity [3]: 0.063 µmol/L | Activity [4]: 0.068 µmol/L | Activity [5]: 0.068 µmol/L | Activity [6]: 0.056 µmol/L | Activity [7]: 0.066 µmol/L | Activity [8]: 0.117 µmol/L | Activity [9]: 0.249 µmol/L

Cc1cc(-c2nc3sc4c(c3c(=O)[nH]2)CCN(C)C4)cc(C)c1OCC(=O)OCc1no[n+]([O-])c1C
IC50 [1]: 1.21 µM | IC50 (SK-OV-3 [2]): 1.62 µM | IC50 (OVCAR-3): 3.73 µM | IC50 (SW626): 9.85 µM | IC50 (ES-2): 8.86 µM | IC50 (A2780): 5.39 µM | Activity [3]: 0.028 µmol/L | Activity [4]: 0.04 µmol/L | Activity [5]: 0.025 µmol/L | Activity [6]: 0.033 µmol/L | Activity [7]: 0.037 µmol/L | Activity [8]: 0.042 µmol/L | Activity [9]: 0.169 µmol/L

Cc1cc(-c2nc3sc4c(c3c(=O)[nH]2)CCN(C)C4)cc(C)c1OCCCCCCO[N+](=O)[O-]
IC50 [1]: 2.25 µM | IC50 (SK-OV-3 [2]): 3.87 µM | IC50 (OVCAR-3): 17.9 µM | IC50 (SW626): 17 µM | IC50 (ES-2): 15.8 µM | IC50 (A2780): 14.2 µM | Activity [3]: 0.029 µmol/L | Activity [4]: 0.038 µmol/L | Activity [5]: 0.03 µmol/L | Activity [6]: 0.03 µmol/L | Activity [7]: 0.036 µmol/L | Activity [8]: 0.037 µmol/L | Activity [9]: 0.166 µmol/L

Cc1cc(-c2nc3sc4c(c3c(=O)[nH]2)CCN(C)C4)cc(C)c1OCCCCCCOC(=O)c1no[n+]([O-])c1C
IC50 [1]: 2.36 µM | IC50 (SK-OV-3 [2]): 6.33 µM | IC50 (OVCAR-3): 7.04 µM | IC50 (SW626): 12.1 µM | IC50 (ES-2): 4.69 µM | IC50 (A2780): 13.1 µM | Activity [3]: 0.022 µmol/L | Activity [4]: 0.027 µmol/L | Activity [5]: 0.028 µmol/L | Activity [6]: 0.026 µmol/L | Activity [7]: 0.036 µmol/L | Activity [8]: 0.044 µmol/L | Activity [9]: 0.154 µmol/L

CO/C1=C\C(C)=C\[C@@H](C)[C@@H](O)[C@@H](C)C/C(C)=C/C=C/[C@H](OC)[C@@H]([C@@H](C)[C@@H](O)[C@H](C)[C@@]2(O)C[C@@H](O)[C@H](C)[C@@H](C(C)C)O2)OC1=O
Activity (SK-OV-3 [10]): inactive

Cc1cc(-c2nc3sc4c(c3c(=O)[nH]2)CCN(C)C4)cc(C)c1OCCCCCC(=O)OCc1no[n+]([O-])c1C
IC50 [1]: 1.97 µM | IC50 (SK-OV-3 [2]): 12 µM | IC50 (OVCAR-3): 6.89 µM | IC50 (SW626): 5.79 µM | IC50 (ES-2): 4.63 µM | IC50 (A2780): 6.97 µM | Activity [3]: 0.02 µmol/L | Activity [4]: 0.03 µmol/L | Activity [5]: 0.033 µmol/L | Activity [6]: 0.036 µmol/L | Activity [7]: 0.04 µmol/L | Activity [8]: 0.044 µmol/L | Activity [9]: 0.154 µmol/L

Cn1cnc(N)c2ncnc1-2
Activity (SK-OV-3 [11]): Active

Cc1cc(-c2nc3sc4c(c3c(=O)[nH]2)CCN(C)C4)cc(C)c1OCCCCO[N+](=O)[O-]
IC50 [1]: 1.89 µM | IC50 (SK-OV-3 [2]): 16.9 µM | IC50 (OVCAR-3): 15.3 µM | IC50 (SW626): 16.6 µM | IC50 (ES-2): 16.3 µM | IC50 (A2780): 16.9 µM | Activity [3]: 0.03 µmol/L | Activity [4]: 0.05 µmol/L | Activity [5]: 0.037 µmol/L | Activity [6]: 0.05 µmol/L | Activity [7]: 0.052 µmol/L | Activity [8]: 0.065 µmol/L | Activity [9]: 0.173 µmol/L

CCOC(=O)N1CCN(/[N+]([O-])=N/Oc2ccc([N+](=O)[O-])cc2[N+](=O)[O-])CC1
IC50 (SK-OV-3 [2]): 18.5 µM | IC50 (OVCAR-3): > 20 µM | IC50 (SW626): > 20 µM | IC50 (ES-2): > 20 µM | IC50 (A2780): > 20 µM

Cc1cc(-c2nc3sc4c(c3c(=O)[nH]2)CCN(C)C4)cc(C)c1OCCCC(=O)OCc1c(-c2ccccc2)no[n+]1[O-]
IC50 [1]: 1.71 µM | IC50 (SK-OV-3 [2]): 3.18 µM | IC50 (OVCAR-3): 13.8 µM | IC50 (SW626): 7.65 µM | IC50 (ES-2): 19 µM | IC50 (A2780): 7.31 µM | Activity [3]: 0.063 µmol/L | Activity [4]: 0.068 µmol/L | Activity [5]: 0.068 µmol/L | Activity [6]: 0.056 µmol/L | Activity [7]: 0.066 µmol/L | Activity [8]: 0.117 µmol/L | Activity [9]: 0.249 µmol/L

Cc1cc(-c2nc3sc4c(c3c(=O)[nH]2)CCN(C)C4)cc(C)c1O
inhibition (Mus musculus): Active
